In patent publication US6455755B2, “Leukotriene B4 receptor transgenic mice” (Brigham and Women's Hospital, priority 1999, dated 2002):

Legend:
[1] = test system: HEK293 cells with BLTR and ALXR (stable transfectants); test: Cytosensor microphysiometry of extracellular acidification rate (EAR) in HEK293 cells with BLTR and ALXR; type: cell-based, human; details: LXA4 1 μM 20 min prior to LTB4 1 μM
Method: (§1) Cloning and functional expression of hBLTR. Total RNA was isolated from retinoic acid differentiated HL-60 cells using TriZol reagent (GIBCO BRL, Grand Island, N.Y.) and reverse-transcribed for 30 min at 50° C. followed by 40 cycles of polymerase chain reactions (PCR) using Vent DNA polymerase (New England BioLabs, Beverly, Mass.) (98° C. for 1 min, 60° C. for 1 min and 72° C. for 2 min) with specific primers for hBLTR (BLTR-N: 5′[…]-3′ and BLTR-C: 5′[…]-3′) (Fiore, S., Romano, M., Reardon, E. M. and Serhan, C. N. 1993. Induction of functional lipoxin A4 receptors in HL-60 cells. Blood 81: 3395-3403). HBLTR cDNA was inserted into pGL vector (Promega) at HindII-PpuMI site downstream of CD11b promoter. HEK293 cells were transfected with this pGL-CD11b-hBLTR construct using SuperFect reagent (Qiagen, Chatsworth, Calif.). Ligand binding and intracellular Ca^2+ release were carried out as in refs. (Yokomizo, T., Izumi, T., Chang, K., Takuwa, Y. and Shimizu, T. 1997. A G-protein-coupled receptor for leukotriene B4 that mediates chemotaxis. Nature 387: 620-624) and (Ng, C. F., Sun, F. F., Taylor, B. M., Wolin, M. S. and Wong, P. Y. 1991. Functional properties of guinea pig eosinophil leukotriene B4receptors. J. Immunol. 147: 3096-3103), respectively. […]

[2] = target: T1, BLTR (Homo sapiens, UniProt Q15722); test: Displacement of specific [3H]-LTB4 binding in HEK293 cells stably transfected with BLTR; design: expressed in transfected cells
Method: as §1

[3] = test system: PMN infiltration into lungs; test: Hind limb ischemia-reperfusion induced second organ injury (lung PMN infiltration by MPO); type: in vivo, mouse; details: hBLTR transgenic mice
Description: Hind limb ischemia-reperfusion induced second organ injury. Mice were anesthetized and ATL analog 15-epi-16-para-fluoro-phenoxy-LXA4 (15(R)-16-para-fluoro-phenoxy-17,18,19,20-tetranol-LXA4 methyl ester), prepared as in (Takano, T., Clish, C. B., Gronert, K., Petasis, N. A. and Serhan C. N. 1997. Neutrophil-mediated changes in vascular permeability are inhibited by topical application of aspirin-triggered 15-epi-lipoxin A4 and novel lipoxin B4 stable analogues. J. Clin. Invest. 101: 819-826) or vehicle was administered intravenously to the transgenic mice. Approximately five minutes later, a tourniquet was placed proximally around each hind limb and secured with a metal clamp (Goldman, G., Welboum, R., Klausner, J. M., Kobzik, L., Valeri, C. R. et al. 1992. Mast cells and leukotrienes mediate neutrophil sequestration and lung edema after remote ischemia in rodents. Surgery 112: 578-586). Vascular occlusion was verified by engorgement and discoloration of the feet. After 3 hours of ischemia, the tourniquets were removed and followed by 3 hours of reperfusion. […] The left lungs were harvested, homogenized in 1.5 ml of potassium phosphate buffer (pH 7.4) and then centrifuged at 14,000 rpm (5 min). […]

[4] = test system: PMN infiltration into ear skin; test: Ear skin inflammation model (topical application, PMN infiltration by MPO); type: in vivo, mouse; details: for increase in PMN infiltration into skin compared to vehicle control: LTB4 1 μg topical to ear, MPO; for percent inhibition of LTB4-induced PMN infiltration: 10 μg topical 5 min before LTB4 1 μg
Method: Ear skin inflammation model. hBLTR transgenic and wt mice were anesthetized and 16-phenoxyl-LXA4 (15(S)-16-phenoxy-17,18,19,20-tetranol-LXA4 methyl ester, prepared by total synthesis as in ref. 7 by Prof. N. A. Petasis and colleagues, Dept. of Chemistry, Univ. of Southern California) (10 μg) in 10 μl of acetone was applied to the inner side of right ears. Acetone alone was applied to the left ear as a vehicle control. Five min later, LTB4 (5S, 12R-dihydroxy-6,8,10,14-eicosatetraenoic acid; 1 μg) in 10 μl acetone was applied to both ears. Ear skin punch biopsies were collected for leukocyte MPO activity (Takano, T., Clish, C. B., Gronert, K., Petasis, N. A. and Serhan C. N. 1997. Neutrophil-mediated changes in vascular permeability are inhibited by topical application of aspirin-triggered 15-epi-lipoxin A4 and novel lipoxin B4 stable analogues. J. Clin. Invest. 101: 819-826).

[5] = target: T1, BLTR; test: Intracellular Ca2+ mobilization in HEK293 cells transfected with pGL-CD11b-hBLTR; type: cell-based; design: expressed in transfected cells; host or cells: HEK293 (transient transfection with pGL-CD11b-hBLTR, SuperFect); details: LTB4 100 nM; transiently transfected HEK293 cells

T1 sequence (Q15722 whole entry): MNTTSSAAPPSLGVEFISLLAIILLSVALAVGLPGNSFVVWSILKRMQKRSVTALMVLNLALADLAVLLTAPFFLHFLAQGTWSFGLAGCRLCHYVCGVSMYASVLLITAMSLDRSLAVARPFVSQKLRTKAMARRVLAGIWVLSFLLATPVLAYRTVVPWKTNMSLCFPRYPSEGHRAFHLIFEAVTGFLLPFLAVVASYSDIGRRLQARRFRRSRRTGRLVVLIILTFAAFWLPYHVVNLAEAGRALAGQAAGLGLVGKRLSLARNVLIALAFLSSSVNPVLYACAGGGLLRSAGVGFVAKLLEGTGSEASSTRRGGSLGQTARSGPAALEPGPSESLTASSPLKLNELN

CCCCC[C@H](O)/C=C/C=C\C=C\C=C\[C@@H](O)[C@@H](O)CCCC(=O)O (relative stereo) [LXA4, 5(S), 6(R), 15(S)-trihydroxy-7,9,13-trans-11-cis eicosatetraenoic acid]
effect on LTB4-evoked extracellular acidification rate [1]: nor did LXA4 or its analogs affect LTB4-evoked extracellular acidification rate | competition with [3H]-LTB4 binding [2]: did not compete with [^3H]-LTB4 binding

COC(=O)CCC[C@H](O)[C@H](O)C=CC=CC=CC=C[C@@H](O)COc1ccc(F)cc1 [ATL, 15(R)-16-para-fluoro-phenoxy-17,18,19,20-tetranol-LXA4 methyl ester]
PMN infiltration into lungs vs vehicle ([3]; 10 μg intravenous prior to ischemia-reperfusion, p=0.04, n=3): significantly diminished PMN infiltration into lungs | inhibition of PMN infiltration (change) ([3]; intravenous prior to ischemia-reperfusion): 40-60%

CCCCCC=CC[C@@H](O)C=CC=CC=C[C@@H](O)CCCC(=O)O [LTB4, 5S, 12R-dihydroxy-6,8,10,14-eicosatetraenoic acid, reference compound]
increase in PMN infiltration into skin compared to vehicle control ([4]; hBLTR transgenic mice, n=10): 7.4±0.9 fold | increase in PMN infiltration into skin compared to vehicle control ([4]; wt mice, n=7): 3.2±0.5 fold | mobilization of intracellular Ca2+ [5]: intracellular Ca^2+ was mobilized

COC(=O)CCC[C@H](O)[C@H](O)C=CC=CC=CC=C[C@H](O)COc1ccccc1 [LXA4 stable analog, 15(S)-16-phenoxy-17,18,19,20-tetranol-LXA4 methyl ester]
number of PMN whose infiltration was inhibited, hBLTR transgenic relative to wt mice ([4]; MPO activities converted to total number of PMN, 10 μg topical): 3 times | percent inhibition of LTB4-induced PMN infiltration ([4]; hBLTR transgenic mice): ~45% | effect on PMN infiltration ([4]; hBLTR transgenic mice, 10 μg topical, representative data from n=3): clearly able to block PMN infiltration | percent inhibition of LTB4-induced PMN infiltration ([4]; wt mice): ~37%
